In US9382188B2, “Aromatic ring compound” (TAKEDA PHARMACEUTICAL COMPANY LIMITED, priority 2012, dated 2016):

Target: T1, human GPR40 (Homo sapiens, UniProt O14842)
T1 construct: expressed in transfected cells
Experiment: Evaluation of human GPR40 agonist activity with increase in intracellular Ca2+ concentration as an index (FLIPR Tetra)
Type: cell-based
Conditions: test compound 1 μM; CHO(dhfr-) cells stably expressing human GPR40; 100% = activity of 1 μM WO2009/048527 Example 99.2, 0% = DMSO
Procedure: Evaluation of human GPR40 agonist activity with increase in intracellular Ca^2+ concentration as an index
CHO(dhfr-) cells that stably expressed human GPR40 were suspended in MEMα (Nikken Bio Medical Laboratory) containing 10% dialysis serum (GEMINI BIO-PRODUCTS), 10 mM HEPES (Invitrogen), 100 U/mL penicillin, 100 μg/mL streptomycin (Invitrogen), and plated on a 384 well black/clear cell culture plate at 10,000 cells/well. After culture overnight in a CO2 incubator at 37° C., the culture supernatant was removed, and a loading buffer [dye attached to Calcium 5 Assay Kit (Molecular Devices) was dissolved in an assay buffer (20 mM HEPES, 0.2% fatty acid-free BSA (Sigma-Aldrich), 2.5 mM probenecid (DOJINDO)-containing HBSS (Invitrogen)) added with 0.025% Cremophor EL (DOJINDO)] was added at 37.5 μL/well. After incubation in a CO2 incubator at 37° C. for 1 hr, the cells were stood at room temperature for 15 min, an assay buffer containing the test compound at a final concentration of 1 μM was added at 12.5 μL/well in FLIPR Tetra (Molecular Devices), and the fluorescence amount was successively measured. Human GPR40 agonist activity calculated using an increase in the intracellular Ca^2+ concentration as an index, wherein the activity of 1 μM of the compound described in WO 2009/048527 (WO2009/048527 Example 99.2) was 100%, and the activity when DMSO was added instead of the test compound was 0%.

T1 sequence (O14842 whole entry): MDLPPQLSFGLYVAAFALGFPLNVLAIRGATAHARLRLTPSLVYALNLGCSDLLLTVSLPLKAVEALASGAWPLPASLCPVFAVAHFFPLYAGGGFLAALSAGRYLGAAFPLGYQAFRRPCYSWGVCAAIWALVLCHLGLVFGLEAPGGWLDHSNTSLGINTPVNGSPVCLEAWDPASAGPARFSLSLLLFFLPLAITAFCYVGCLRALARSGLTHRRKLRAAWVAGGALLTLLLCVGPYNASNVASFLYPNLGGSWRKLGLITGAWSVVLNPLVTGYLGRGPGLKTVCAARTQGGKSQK

activation at 1 µM | Structure (SMILES)
105% | COc1ccc(F)c(-c2ccc(OCc3cccc(C(CC(=O)O)C4CC4)c3)cc2CC(C)(C)C#N)c1 (stereo not shown) [Example 26, 3-(3-(((2-(2-cyano-2-methylpropyl)-2′-fluoro-5′-methoxybiphenyl-4-yl)oxy)methyl)phenyl)-3-cyclopropylpropanoic acid]
119% | COc1ccc(F)c(-c2ccc(OCc3cccc(C(CC(=O)O)C4CC4)c3)cc2CC2(C#N)CC2)c1 (stereo not shown) [Example 103, 3-(3-(((2-((1-cyanocyclopropyl)methyl)-2′-fluoro-5′-methoxybiphenyl-4-yl)oxy)methyl)phenyl)-3-cyclopropylpropanoic acid]
103% | COc1ccc(F)c(-c2ccc(OCc3cccc(C(CC(=O)O)C4CC4)c3)c(CCCC(C)(C)C)c2)c1 (stereo not shown) [Example 21, 3-cyclopropyl-3-(3-(((3-(4,4-dimethylpentyl)-2′-fluoro-5′-methoxybiphenyl-4-yl)oxy)methyl)phenyl)propanoic acid]
140% | COc1ccc(F)c(-c2ccc(OCc3cccc(C(CC(=O)O)C4CC4)c3)cc2C2CC(C)(C)OC(C)(C)C2)c1 (stereo not shown) [Example 96, 3-cyclopropyl-3-(3-(((2′-fluoro-5′-methoxy-2-(2,2,6,6-tetramethyltetrahydro-2H-pyran-4-yl)biphenyl-4-yl)oxy)methyl)phenyl)propanoic acid]
103% | COc1ccc(F)c(-c2ccc(OCc3cccc(C(CC(=O)O)C4CC4)c3)cc2CC(C)(C)C)c1 (stereo not shown) [Example 3, 3-cyclopropyl-3-(3-(((2-(2,2-dimethylpropyl)-2′-fluoro-5′-methoxybiphenyl-4-yl)oxy)methyl)phenyl)propanoic acid]
103% | COc1ccc(F)c(-c2ccc(OCc3cc(C(CC(=O)O)C4CC4)ncn3)nc2CC(C)(C)C)c1 (stereo not shown) [Example 30, 3-cyclopropyl-3-(6-(((6-(2,2-dimethylpropyl)-5-(2-fluoro-5-methoxyphenyl)pyridin-2-yl)oxy)methyl)pyrimidin-4-yl)propanoic acid]
117% | COc1cccc(-c2ncc(OCc3cccc(C(CC(=O)O)C4CC4)c3)cc2CC(C)(C)C)c1 (stereo not shown) [Example 46, 3-cyclopropyl-3-(3-(((5-(2,2-dimethylpropyl)-6-(3-methoxyphenyl)pyridin-3-yl)oxy)methyl)phenyl)propanoic acid]
116% | CCOc1ccc(F)c(-c2ncc(OCc3cccc(C(CC(=O)O)C4CC4)c3)cc2CC(C)(C)C)c1 (stereo not shown) [Example 68, 3-cyclopropyl-3-(3-(((5-(2,2-dimethylpropyl)-6-(5-ethoxy-2-fluorophenyl)pyridin-3-yl)oxy)methyl)phenyl)propanoic acid]
116% | CCCC(C)(C)Cc1cc(OCc2cccc(C(CC(=O)O)C3CC3)c2)ccc1-c1cc(OC)ccc1F (stereo not shown) [Example 105, 3-cyclopropyl-3-(3-(((2-(2,2-dimethylpentyl)-2′-fluoro-5′-methoxybiphenyl-4-yl)oxy)methyl)phenyl)propanoic acid]
102% | COc1ccc(F)c(-c2ccc(OCc3cccc(C(CC(=O)O)C4CC4)c3)cc2CCCC(C)(C)C)c1 (stereo not shown) [Example 113, 3-cyclopropyl-3-(3-(((2-(4,4-dimethylpentyl)-2′-fluoro-5′-methoxy-[1,1′-biphenyl]-4-yl)oxy)methyl)phenyl)propanoic acid]
106% | COc1ccc(F)c(-c2ccc(N(Cc3cccc(C(CC(=O)O)C4CC4)c3)CC(F)(F)F)cc2CC(C)(C)C)c1 (stereo not shown) [Example 11, 3-cyclopropyl-3-(3-(((2-(2,2-dimethylpropyl)-2′-fluoro-5′-methoxybiphenyl-4-yl)(2,2,2-trifluoroethyl)amino)methyl)phenyl)propanoic acid]
21% | Cc1cncc(-c2ncc(OCc3cccc(C(CC(=O)O)C4CC4)c3)cc2CC(C)(C)C)c1 (stereo not shown) [Example 63, 3-cyclopropyl-3-(3-(((3-(2,2-dimethylpropyl)-5′-methyl-2,3′-bipyridin-5-yl)oxy)methyl)phenyl)propanoic acid]
99% | COc1ccc(OC)c(-c2ncc(OCc3cccc(C(CC(=O)O)C4CC4)c3)cc2CC(C)(C)C)c1 (stereo not shown) [Example 53, 3-cyclopropyl-3-(3-(((6-(2,5-dimethoxyphenyl)-5-(2,2-dimethylpropyl)pyridin-3-yl)oxy)methyl)phenyl)propanoic acid]
-23% | CC(C)(C)Cc1cc(OCc2cccc(C(CC(=O)O)C3CC3)c2)cnc1-c1cccc(OC(F)(F)F)c1 (stereo not shown) [Example 49, 3-cyclopropyl-3-(3-(((5-(2,2-dimethylpropyl)-6-(3-(trifluoromethoxy)phenyl)pyridin-3-yl)oxy)methyl)phenyl)propanoic acid]
102% | COc1ccc(F)c(-c2ccc(C(F)Cc3cccc(CCC(=O)O)c3)nc2CC(C)(C)C)c1 (stereo not shown) [Example 36, 3-(3-(2-(6-(2,2-dimethylpropyl)-5-(2-fluoro-5-methoxyphenyl)pyridin-2-yl)-2-fluoroethyl)phenyl)propanoic acid]
93% | COc1ccc(F)c(-c2ccc(OCc3cccc(C(CC(=O)O)C4CC4)c3)cc2CC2(C#N)CCCCC2)c1 (stereo not shown) [Example 99, 3-(3-(((2-((1-cyanocyclohexyl)methyl)-2′-fluoro-5′-methoxybiphenyl-4-yl)oxy)methyl)phenyl)-3-cyclopropylpropanoic acid]
108% | COc1ccc(F)c(-c2ccc(OCc3cc(C(CC(=O)O)C4CC4)ccn3)nc2CC(C)(C)C)c1 (stereo not shown) [Example 25, 3-cyclopropyl-3-(2-(((6-(2,2-dimethylpropyl)-5-(2-fluoro-5-methoxyphenyl)pyridin-2-yl)oxy)methyl)pyridin-4-yl)propanoic acid]
123% | CC(C)(C)Cc1cc(OCc2cccc(C(CC(=O)O)C3CC3)c2)cnc1-c1cc(O)ccc1F (stereo not shown) [Example 73, 3-cyclopropyl-3-(3-(((5-(2,2-dimethylpropyl)-6-(2-fluoro-5-hydroxyphenyl)pyridin-3-yl)oxy)methyl)phenyl)propanoic acid]
96% | COc1ccc(F)c(-c2ccc(OCc3cccc(C(CC(=O)O)C(F)(F)C(F)(F)F)c3)cc2CC(C)(C)C)c1 (stereo not shown) [Example 85, 4,4,5,5,5-pentafluoro-3-(3-(((2′-fluoro-5′-methoxy-2-neopentyl-[1,1′-biphenyl]-4-yl)oxy)methyl)phenyl)pentanoic acid]
95% | COc1ccc(F)c(-c2ccc(OCc3cccc(C(CC(=O)O)C4CC4)c3)cc2-c2ccc(C#N)s2)c1 (stereo not shown) [Example 28, 3-(3-(((2-(5-cyano-2-thienyl)-2′-fluoro-5′-methoxybiphenyl-4-yl)oxy)methyl)phenyl)-3-cyclopropylpropanoic acid]
115% | COc1ccc(Cl)c(-c2ncc(OCc3cccc(C(CC(=O)O)C4CC4)c3)cc2CC(C)(C)C)c1 (stereo not shown) [Example 59, 3-(3-(((6-(2-chloro-5-methoxyphenyl)-5-(2,2-dimethylpropyl)pyridin-3-yl)oxy)methyl)phenyl)-3-cyclopropylpropanoic acid]
8% | CC(C)(C)Cc1cc(OCc2cccc(C(CC(=O)O)C3CC3)c2)cnc1-c1ccc(OC(F)(F)F)cc1 (stereo not shown) [Example 61, 3-cyclopropyl-3-(3-(((5-(2,2-dimethylpropyl)-6-(4-(trifluoromethoxy)phenyl)pyridin-3-yl)oxy)methyl)phenyl)propanoic acid]
61% | CC(C)Oc1ccc(F)c(-c2ncc(OCc3cccc(C(CC(=O)O)C4CC4)c3)cc2CC(C)(C)C)c1 (stereo not shown) [Example 69, 3-cyclopropyl-3-(3-(((5-(2,2-dimethylpropyl)-6-(2-fluoro-5-isopropoxyphenyl)pyridin-3-yl)oxy)methyl)phenyl)propanoic acid]
92% | Cc1cccc(-c2ncc(OCc3cccc(C(CC(=O)O)C4CC4)c3)cc2CC(C)(C)C)c1 (stereo not shown) [Example 47, 3-cyclopropyl-3-(3-(((5-(2,2-dimethylpropyl)-6-(3-methylphenyl)pyridin-3-yl)oxy)methyl)phenyl)propanoic acid]
106% | COc1cc(-c2ncc(OCc3cccc(C(CC(=O)O)C4CC4)c3)cc2CC(C)(C)C)c(F)cn1 (stereo not shown) [Example 57, 3-cyclopropyl-3-(3-(((3-(2,2-dimethylpropyl)-5′-fluoro-2′-methoxy-2,4′-bipyridin-5-yl)oxy)methyl)phenyl)propanoic acid]
94% | COc1ccc(F)c(-c2ccc(OCc3cccc(C(CCCC#N)CC(=O)O)c3)cc2CC(C)(C)C)c1 (stereo not shown) [Example 89, 6-cyano-3-(3-(((2′-fluoro-5′-methoxy-2-neopentyl-[1,1′-biphenyl]-4-yl)oxy)methyl)phenyl)hexanoic acid]
98% | COc1ccc(F)c(-c2ccc(OCc3cccc(OCC(=O)O)c3)nc2CC(C)(C)C)c1 [Example 1, (3-(((6-(2,2-dimethylpropyl)-5-(2-fluoro-5-methoxyphenyl)pyridin-2-yl)oxy)methyl)phenoxy)acetic acid]
1% | CCCCCOc1ccc(F)c(-c2ncc(OCc3cccc(C(CC(=O)O)C4CC4)c3)cc2CC(C)(C)C)c1 (stereo not shown) [Example 71, 3-cyclopropyl-3-(3-(((5-(2,2-dimethylpropyl)-6-(2-fluoro-5-(pentyloxy)phenyl)pyridin-3-yl)oxy)methyl)phenyl)propanoic acid]
